# Read-outs that look alike come from different tables or passages of the source.
# Legend:
# C. neoformans = test: Checkerboard minimum inhibitory concentration and synergy test (microtiter plate and agar plate analysis) on C. neoformans; format: cell-based, Cryptococcus neoformans; settings: for Fold MIC decrease: added compound with other compound at 1/2 MIC vs alone; for 1/2 MIC: half of MIC, concentration used in the combination; for MIC: Cryptococcus neoformans; for MIC / synergistic effect of DDG isomers on antifungal effect of amphotericin B: 24 h; for synergistic effect of DDG isomers on antifungal effect of amphotericin B: 37° C. (FIG. 11)
# C. albicans = test: Checkerboard minimum inhibitory concentration and synergy test (microtiter plate and agar plate analysis) on Candida albicans; format: cell-based; settings: for Fold MIC decrease: added compound with other compound at 1/2 MIC vs alone; for 1/2 MIC: half of MIC, concentration used in the combination; for MIC: Candida albicans, 24 h
# [1] = intravenous, 1 mg/kg, cited from earlier work
# [2] = cited from earlier work
# [3] = tested on: bacteria, rickettsiae, and viruses; settings: cited from earlier work
# erythrocytes = settings: by binding to cholesterol in the cell membrane, causing anemia; cited from earlier work
# human cells = settings: cited from earlier work
# mice = settings: cited from earlier work
# laboratory animals = settings: fed in very high doses; cited from earlier work
# phagocytes = settings: cited from earlier work
# neurons = settings: cited from earlier work
# [4] = 25° C., agar plate, compound alone
# [5] = 25° C., microtiter plate, compound alone
# [6] = 37° C., agar plate, compound alone
# [7] = 37° C., microtiter plate, compound alone
# [8] = 25° C., agar plate, compound alone, read-out: MIC
# [9] = 25° C., microtiter plate, compound alone, read-out: MIC
# [10] = 37° C., agar plate, compound alone, read-out: MIC
# [11] = 37° C., microtiter plate, compound alone, read-out: MIC
structure (smiles),measurement,setting,value
"C[C@@H]1[C@H](O)[C@@H](C)/C=C/C=C/C=C/C=C/C=C/C=C/C=C/[C@H](O[C@@H]2O[C@H](C)[C@@H](O)[C@H](N)[C@@H]2O)C[C@@H]2O[C@](O)(C[C@@H](O)C[C@@H](O)[C@H](O)CC[C@@H](O)C[C@@H](O)CC(=O)O[C@H]1C)C[C@H](O)[C@H]2C(=O)O [amphotericin B, [1R-(1R*,3S*, 5R*,6R*,9R*, 11R*,15S*,16R*,17R*,18S*,19E,21E,23E,25E,27E,29E,31E,33R*, 35S*,36R*,37S,)]-33-[(3-amino-3,6-dideoxy-β-D-mannopyranosyl)oxy]1,3,5,6,9,11,17,37-octahydroxy-15,16,18-trimethyl-13-oxo-14,39-dioxabicyclo-[33.3.1]nonatriaconta-19,21,23,25,27,29,31-heptaene-36-carboxylic acid]",Fold MIC decrease,"C. neoformans; 25° C., agar plate",72
same,1/2 MIC,"C. neoformans; 25° C., agar plate",1.13 µg/mL
same,Fold MIC decrease,"C. neoformans; 25° C., microtiter plate",48
same,1/2 MIC,"C. neoformans; 25° C., microtiter plate",1.12 µg/mL
same,1/2 MIC,"C. neoformans; 25° C., microtiter plate, listed as Amph. B",1.13 µg/mL
same,Fold MIC decrease,"C. neoformans; 37° C., agar plate",80
same,1/2 MIC,"C. neoformans; 37° C., agar plate",1.25 µg/mL
same,Fold MIC decrease,"C. neoformans; 37° C., microtiter plate",12.7
same,1/2 MIC,"C. neoformans; 37° C., microtiter plate",0.75 µg/mL
same,MIC,C. neoformans; [4],2.25 µg/mL
same,MIC,C. neoformans; [5],2.25 µg/mL
same,MIC,C. neoformans; [6],2.5 µg/mL
same,MIC,C. neoformans; [7],1.5 µg/mL
same,MIC,"C. neoformans; read-out: Resulting MIC of added compound, 25° C., 24 h, microtiter plate, in presence of the other compound at 1/2 MIC (rac-1-DDG 7.5 or Amph. B 1.13 μg/ml)",0.047 µg/mL
same,MIC,"C. neoformans; read-out: Resulting MIC of added compound, 25° C., agar plate, in presence of the other compound at 1/2 MIC (rac-1-DDG 5 or Amph. B 1.13 μg/ml)",0.0313 µg/mL
same,MIC,"C. neoformans; read-out: Resulting MIC of added compound, 37° C., agar plate, in presence of the other compound at 1/2 MIC (rac-1-DDG 10 or Amph. B 1.25 μg/ml)",0.0313 µg/mL
same,MIC,"C. neoformans; read-out: Resulting MIC of added compound, 37° C., microtiter plate, in presence of the other compound at 1/2 MIC (rac-1-DDG 7.5 or Amph. B 0.75 μg/ml)",0.118 µg/mL
same,Fold MIC decrease,"C. albicans; 25° C., agar plate",72
same,1/2 MIC,"C. albicans; 25° C., agar plate",1.13 µg/mL
same,Fold MIC decrease,"C. albicans; 25° C., microtiter plate",64
same,1/2 MIC,"C. albicans; 25° C., microtiter plate",1 µg/mL
same,Fold MIC decrease,"C. albicans; 37° C., agar plate",10.6
same,1/2 MIC,"C. albicans; 37° C., agar plate",1 µg/mL
same,Fold MIC decrease,"C. albicans; 37° C., microtiter plate",5.3
same,1/2 MIC,"C. albicans; 37° C., microtiter plate",0.5 µg/mL
same,MIC,C. albicans; [4],2.25 µg/mL
same,MIC,C. albicans; [5],2 µg/mL
same,MIC,C. albicans; [6],2 µg/mL
same,MIC,C. albicans; [7],1 µg/mL
same,MIC,"C. albicans; read-out: Resulting MIC of added compound, 25° C., agar plate, in presence of the other compound at 1/2 MIC (rac-1-DDG 10 or Amph. B 1.13 μg/ml)",0.0313 µg/mL
same,MIC,"C. albicans; read-out: Resulting MIC of added compound, 25° C., microtiter plate, in presence of the other compound at 1/2 MIC (rac-1-DDG 5 or Amph. B 1 μg/ml)",0.0313 µg/mL
same,MIC,"C. albicans; read-out: Resulting MIC of added compound, 37° C., agar plate, in presence of the other compound at 1/2 MIC (rac-1-DDG 7.5 or Amph. B 1 μg/ml)",0.188 µg/mL
same,MIC,"C. albicans; read-out: Resulting MIC of added compound, 37° C., microtiter plate, in presence of the other compound at 1/2 MIC (rac-1-DDG 7.5 or Amph. B 0.5 μg/ml)",0.188 µg/mL
same,peak serum concentrations,[1]; by end of infusion,2-3 micrograms/ml
same,serum concentration,[1]; for up to 24 hours after infusion,above 0.5 micrograms/ml
same,solubility in water,[2]; crystalline,insoluble in water
same,"effect on bacteria, rickettsiae, and viruses",[3],no effect
same,damage to erythrocytes,erythrocytes,damages erythrocytes
Nc1nc(=O)[nH]cc1F [Fluorocytosine],toxicity to human cells,human cells,toxic to human cells
"CCCCCCCCCCCCOC(CO)CO [2-DDG, 2-O-dodecylglycerol]",synergistic effect of DDG isomers on antifungal effect of amphotericin B,C. neoformans,synergistic effect
"CCCCCCCCCCCCOC[C@@H](O)CO [sn-1-DDG, sn-1-O-dodecylglycerol]",synergistic effect of DDG isomers on antifungal effect of amphotericin B,C. neoformans,synergistic effect
"CCCCCCCCCCCCOC[C@H](O)CO [Sn-3-DDG, sn-3-O-dodecylglycerol]",synergistic effect of DDG isomers on antifungal effect of amphotericin B,C. neoformans,synergistic effect
"CCCCCCCCCCCCOCC(O)CO (racemic) [rac-1-DDG, rac-1-O-dodecylglycerol]",Fold MIC decrease,"C. neoformans; 25° C., agar plate",80
same,1/2 MIC,"C. neoformans; 25° C., agar plate",5 µg/mL
same,Fold MIC decrease,"C. neoformans; 25° C., microtiter plate",120
same,1/2 MIC,"C. neoformans; 25° C., microtiter plate",7.5 µg/mL
same,Fold MIC decrease,"C. neoformans; 37° C., agar plate",160
same,1/2 MIC,"C. neoformans; 37° C., agar plate",10 µg/mL
same,Fold MIC decrease,"C. neoformans; 37° C., microtiter plate",50
same,1/2 MIC,"C. neoformans; 37° C., microtiter plate",7.5 µg/mL
same,MIC,C. neoformans; [8],10 µg/mL
same,MIC,C. neoformans; [9],15 µg/mL
same,MIC,"C. neoformans; 25° C., microtiter plate, in presence of the other compound at 1/2 MIC (rac-1-DDG 7.5 or Amph. B 1.13 μg/ml), read-out: Resulting MIC of added compound",0.125 µg/mL
same,MIC,"C. neoformans; 25° C., agar plate, in presence of the other compound at 1/2 MIC (rac-1-DDG 5 or Amph. B 1.13 μg/ml), read-out: Resulting MIC of added compound",0.125 µg/mL
same,MIC,C. neoformans; [10],20 µg/mL
same,MIC,C. neoformans; [11],15 µg/mL
same,MIC,"C. neoformans; 37° C., agar plate, in presence of the other compound at 1/2 MIC (rac-1-DDG 10 or Amph. B 1.25 μg/ml), read-out: Resulting MIC of added compound",0.125 µg/mL
same,MIC,"C. neoformans; 37° C., microtiter plate, in presence of the other compound at 1/2 MIC (rac-1-DDG 7.5 or Amph. B 0.75 μg/ml), read-out: Resulting MIC of added compound",0.3 µg/mL
same,Fold MIC decrease,"C. albicans; 25° C., agar plate",80
same,1/2 MIC,"C. albicans; 25° C., agar plate",10 µg/mL
same,Fold MIC decrease,"C. albicans; 25° C., microtiter plate",36
same,1/2 MIC,"C. albicans; 25° C., microtiter plate",5 µg/mL
same,Fold MIC decrease,"C. albicans; 37° C., agar plate",40
same,1/2 MIC,"C. albicans; 37° C., agar plate",7.5 µg/mL
same,Fold MIC decrease,"C. albicans; 37° C., microtiter plate",40
same,1/2 MIC,"C. albicans; 37° C., microtiter plate",7.5 µg/mL
same,MIC,C. albicans; [8],20 µg/mL
same,MIC,C. albicans; [9],10 µg/mL
same,MIC,"C. albicans; 25° C., agar plate, in presence of the other compound at 1/2 MIC (rac-1-DDG 10 or Amph. B 1.13 μg/ml), read-out: Resulting MIC of added compound",0.25 µg/mL
same,MIC,"C. albicans; 25° C., microtiter plate, in presence of the other compound at 1/2 MIC (rac-1-DDG 5 or Amph. B 1 μg/ml), read-out: Resulting MIC of added compound",0.281 µg/mL
same,MIC,C. albicans; [10],15 µg/mL
same,MIC,C. albicans; [11],15 µg/mL
same,MIC,"C. albicans; 37° C., agar plate, in presence of the other compound at 1/2 MIC (rac-1-DDG 7.5 or Amph. B 1 μg/ml), read-out: Resulting MIC of added compound",0.375 µg/mL
same,MIC,"C. albicans; 37° C., microtiter plate, in presence of the other compound at 1/2 MIC (rac-1-DDG 7.5 or Amph. B 0.5 μg/ml), read-out: Resulting MIC of added compound",0.375 µg/mL
same,organ weights or body weights,"mice; 1 g/kg/day in feed, 4 weeks",did not significantly alter the organ weights or body weights of mice
same,linoleolyl moieties of total lipids,"mice; during feeding, 1 g/kg/day",concomitant decrease
same,saturated acyl moieties of total lipids,"mice; during feeding, 1 g/kg/day",marked increase
same,lipids of organs and tissues,mice; four weeks after removal of compound from diet,close resemblance to those of a control group
same,toxicity,laboratory animals,does not appear to be toxic
same,solubility in water,[2],relatively good solubility in water
same,stimulation of phagocytes to ingest foreign substances,phagocytes,stimulated
same,neuronal growth,neurons,promote neuronal growth

# — patent US5444052A, “Amphotericin B composition with enhanced fungal activity” (Temple University of the Commonwealth System of Higher …, priority 1993, dated 1995)
